{
  "source": "paper PMC9098913",
  "about": "“In vitro reconstitution of Escherichia coli divisome activation” (Nature Communications, 2022)",
  "key": {"[1]": {"tested_on": "FtsZ", "experimental": "(§1) Subsequently, the chamber was washed 6x with reaction buffer, to remove bulk peptide. To visualize colocalization with either FtsZ or FtsA, either a mix of FtsA and Alexa488-FtsZ or Cy3-FtsA and FtsZ was added. […] The time-lapse videos were recorded for 10 min after the addition, with one frame per 2 s.\nTime-lapse videos were first intensity-corrected and contrast-enhanced to avoid bleaching effects and simplify subsequent analysis. To remove contributions of X–Y drift, the videos were processed with the Linear Stack Alignment with SIFT plugin. Proper alignment was checked with the 3TP align plugin (J. A. Parker; Beth Israel Deaconess Medical Center, Boston). Subsequently, regions of interest (ROIs) in the center of the stacks were chosen for colocalization analysis. The Pearson’s correlation coefficient (PCC) was quantified with the Image CorrelationJ 1o plugin. To extract information about the relative ratio of FtsZ/FtsA molecules (slope of linear regression), we also used the Image CorrelationJ 1o plugin. As an output, the plugin provides a scatterplot of FtsZ vs FtsA intensities, to which we fitted a linear slope y=k⋅x+d , where k is the slope and d the offset. The slope was used as an estimate for the ratio of FtsA molecules below FtsZ filaments."}, "[2]": {"tested_on": "FtsZ", "experimental": "as §1\nTreadmilling dynamics, were quantified using an automated image analysis protocol previously developed by our group. To visualize colocalization of the co-treadmilling FtsZ & FtsA filaments, we used dual-colour videos obtained at an acquisition rate of one frame per 2 s. The two channels were aligned using FIJI’s 3TP align plugin. Both channels were then subjected to the image subtraction protocol and colocalization was measured as described above.", "remark": "listed apart in the source"}, "[3]": {"biological_target": "T1, FtsA/Z co-filaments (Escherichia coli, UniProt P0A9A6+P0ABH0, R286W)", "T1 construct": "TwinStrep-SUMO (N, cleaved yes); made in house; host or cells: E. coli BL21", "T1 sequence (P0A9A6 whole entry)": "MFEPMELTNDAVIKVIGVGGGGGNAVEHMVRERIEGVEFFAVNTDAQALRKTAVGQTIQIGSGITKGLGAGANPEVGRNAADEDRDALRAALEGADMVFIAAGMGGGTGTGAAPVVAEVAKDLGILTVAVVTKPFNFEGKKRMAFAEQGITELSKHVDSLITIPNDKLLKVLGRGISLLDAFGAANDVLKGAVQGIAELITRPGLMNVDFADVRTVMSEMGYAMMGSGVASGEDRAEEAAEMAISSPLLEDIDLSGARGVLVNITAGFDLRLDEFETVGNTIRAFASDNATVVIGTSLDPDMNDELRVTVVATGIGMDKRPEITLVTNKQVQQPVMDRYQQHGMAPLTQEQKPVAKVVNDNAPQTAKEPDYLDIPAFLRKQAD", "T1 sequence (P0ABH0 whole entry R286W)": "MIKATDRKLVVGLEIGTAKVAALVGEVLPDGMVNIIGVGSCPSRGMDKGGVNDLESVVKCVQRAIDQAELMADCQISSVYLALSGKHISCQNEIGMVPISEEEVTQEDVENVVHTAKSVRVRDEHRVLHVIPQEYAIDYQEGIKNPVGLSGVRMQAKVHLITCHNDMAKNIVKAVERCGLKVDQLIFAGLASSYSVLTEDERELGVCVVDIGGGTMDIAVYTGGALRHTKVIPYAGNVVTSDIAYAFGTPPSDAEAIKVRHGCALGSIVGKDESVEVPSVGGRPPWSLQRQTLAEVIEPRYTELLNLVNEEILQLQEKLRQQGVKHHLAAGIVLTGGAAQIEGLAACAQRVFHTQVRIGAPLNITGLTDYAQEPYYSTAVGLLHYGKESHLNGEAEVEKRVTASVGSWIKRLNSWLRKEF", "format": "biochemical, E. coli", "conditions": "all concentrations of FtsA R286W", "experimental": "By fitting an exponential function to the increase of the PCC with time, we were able to extract the corresponding recruitment rate (Fig. 2f, g).\nas §1"}, "[4]": {"biological_target": "T2, FtsZ-FtsA WT filaments (Escherichia coli, UniProt P0A9A6+P0ABH0)", "T2 construct": "TwinStrep-SUMO (N, cleaved yes); made in house; host or cells: E. coli BL21", "format": "binding, E. coli", "conditions": "0.2 µM FtsA WT, 1.25 µM FtsZ, […] Tris-NTA; p-value 0.03", "text": "Single molecule time lapses were acquired every 32 or 51 ms, with exposure times of 30 and 50 ms, respectively.\nSingle-molecule experiments with FtsNcytowere tracked using the TrackMate plugin from ImageJ[43]. Non-moving particles and short tracks (below 1 s) were filtered out and the data exported as.xml files. […] The packing coefficient is defined as the length of the trajectory in a short time window and the surface area that it occupies. […] This approach is adapted from Renner et al. and implemented here as an easy-to-use Python script. The packing coefficient is computed for each time point as:1 p=∑ii+n−1xi+1−xi^2−yi+1−yi^2/Si^2 Where xi,yi are the coordinates at time i, xi+1, yi+1 are the coordinates at time i+1, n is the length of the time window, and Si is the surface area of the convex hull of the trajectory segment between time points i and i+n. Periods of confinement are identified by setting a threshold corresponding to a certain confinement area size, since p scales with the size of the confinement area. Then it is possible to calculate the frequency and duration of confinement periods and to localize them in space. Each position will have a characteristic p, considering the behaviour of the following n positions. This approach overcomes the limitations of using MSD calculation, which overlooks transient confinement periods. […]"}, "[5]": {"tested_on": "FtsZ", "conditions": "either version of FtsA", "procedure": "Additionally, the reaction chamber contained 4 mM ATP and 4 mM GTP, as well as a scavenging system to minimize photobleaching effects: 30 mM d-glucose, 0.050 mg ml^−1 Glucose Oxidase, 0.016 mg ml^−1 Catalase, 1 mM DTT and 1 mM Trolox. Prior addition of all components a corresponding buffer volume was removed from the chamber to obtain a total reaction volume of 100 µl. The dynamic protein pattern was monitored by time-lapse TIRF microscopy at one frame per 2 s and 50 ms exposure time.\nTo measure reorganization dynamics of FtsZ filaments, we used a temporal correlation analysis based on the Image CorrelationJ 1o plugin. We quantified the PCC between the first frame to subsequent frames with increasing time lag (∆t). The decrease in the PCC was plotted against ∆t to obtain autocorrelation curves. Slower decay indicates more persistent structures. The rates of decay were extracted by fitting monoexponential decay to the autocorrelation curves y=a⋅e^−b⋅t+k , where a is the starting point, b is the decay rate and k is the final offset. The half time of the monoexponential decay was calculated via the decay rate."}, "[6]": {"conditions": "FtsA R286W, even at concentrations above 0.4 µM"}},
  "note": "Where two headings read alike, the source gives them in different places.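 For effect on FtsZ pattern reorganization dynamics in this document: FtsZ filament patterns imaged by time-lapse TIRF microscopy, one frame per 2 s, with ATP and GTP, Pearson correlation of first frame versus later frames, monoexponential fit, slower decay means persistent structures.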",
  "data": [
    {"smiles": "CSCC[C@H](NC(=O)[C@@H](N)CS)C(=O)N[C@@H](C)C(=O)N[C@@H](CCC(N)=O)C(=O)N[C@@H](CCCNC(=N)N)C(=O)N[C@@H](CC(=O)O)C(=O)N[C@@H](Cc1ccc(O)cc1)C(=O)N[C@H](C(=O)N[C@@H](CCCNC(=N)N)C(=O)N[C@@H](CCCNC(=N)N)C(=O)N[C@@H](CO)C(=O)N[C@@H](CCC(N)=O)C(=O)N1CCC[C@H]1C(=O)N[C@@H](C)C(=O)N1CCC[C@H]1C(=O)N[C@@H](CO)C(=O)N[C@@H](CCCNC(=N)N)C(=O)N[C@@H](CCCNC(=N)N)C(=O)N[C@@H](CCCCN)C(=O)N[C@@H](CCCCN)C(=O)N[C@@H](CO)C(=O)N[C@H](C(=O)N[C@@H](CO)C(=O)N[C@@H](CCCNC(=N)N)C(=O)N[C@@H](CCCCN)C(=O)N[C@@H](CCCCN)C(=O)N[C@@H](CCC(N)=O)C(=O)N[C@@H](CCCNC(=N)N)C(=O)N[C@@H](CC(N)=O)C(=O)N[C@@H](CC(C)C)C(=O)N1CCC[C@H]1C(=O)N[C@@H](C)C(=O)N[C@H](C(=O)N[C@@H](Cc1c[nH]cn1)C(=O)N[C@@H](Cc1c[nH]cn1)C(=O)N[C@@H](Cc1c[nH]cn1)C(=O)N[C@@H](Cc1c[nH]cn1)C(=O)N[C@@H](Cc1c[nH]cn1)C(=O)N[C@@H](Cc1c[nH]cn1)C(=O)O)C(C)C)[C@@H](C)O)C(C)C", "note": "[FtsNcyto]", "values": [
      {"measurement": "PCC FtsNcyto/FtsZ", "setting": "[1]; 0.4 µM FtsA R286W, […] Tris-NTA, 1.25 µM FtsZ, p-value 4.92 × 10^−4", "result": "0.70 ± 0.02"},
      {"measurement": "PCC FtsNcyto/FtsZ", "setting": "[1]; 0.4 µM FtsA WT, […] Tris-NTA, 1.25 µM FtsZ, p-value 4.92 × 10^−4", "result": "0.30 ± 0.05"},
      {"measurement": "PCC FtsNcyto/FtsZ", "setting": "[1]; [6]", "result": "> 0.6"},
      {"measurement": "PCCdiff FtsNcyto/FtsZ", "setting": "[2]; 0.4 µM FtsA R286W, […] Tris-NTA, 1.25 µM FtsZ, p-value 3.79 × 10^−3", "result": "0.47 ± 0.05"},
      {"measurement": "PCCdiff FtsNcyto/FtsZ", "setting": "[2]; 0.4 µM FtsA WT, […] Tris-NTA, 1.25 µM FtsZ, p-value 3.79 × 10^−3", "result": "0.17 ± 0.04"},
      {"measurement": "PCCdiff FtsNcyto/FtsZ", "setting": "[2]; [6]", "result": "> 0.6"},
      {"measurement": "FtsNcyto enrichment saturated within", "setting": "[3]", "result": "≤ 1", "unit": "min"},
      {"measurement": "frequency of transient confinement", "setting": "[4]", "result": "57.99 ± 7.29", "unit": "%"},
      {"measurement": "effect on FtsZ pattern reorganization dynamics", "setting": "[5]", "result": "significantly slows down"}
    ]}
  ]
}
